Results taken from patent publication US20120128777A1, “COMPOSITIONS CONTAINING LIPID MICRO- OR NANOPARTICLES FOR THE ENHANCEMENT OF THE DERMAL ACTION OF SOLID PARTICLES” (PHARMASOL GMBH, priority 2008, published 2012).

Test system: skin
Conditions: 50 volunteers, undiluted, patch 48 hours, read after 48 hours and after 72 hours

Work on `CCCCCCCCCCCCOS(=O)(=O)[O-].[Na+]` [SDS, Sodium dodecyl sulphate] yielded a positive reactions of 11 subjects.
